Data from patent US5288720A, “Angiotensin II receptor blocking 2,3,6 substituted quinazolinones” (American Cyanamid Company, priority 1993, dated 1994).

biological target: T1, Angiotensin II Receptor (Bos taurus, UniProt P25104); assay: Receptor Binding Assay: Binding of [^125 I](Sar^1,Ile^8)AngII to beef adrenal cortex membranes; conditions: 60 min, room temperature
T1 construct: The brownish tissue forming the adrenal cortex is scraped off and finely minced with scissors before homogenization; from tissue; host or cells: beef adrenal cortex, microsomal membranes (100,000×g pellet); fresh glands from a local slaughter house (Maxwell-Cohen)
T1 sequence (P25104 1-359): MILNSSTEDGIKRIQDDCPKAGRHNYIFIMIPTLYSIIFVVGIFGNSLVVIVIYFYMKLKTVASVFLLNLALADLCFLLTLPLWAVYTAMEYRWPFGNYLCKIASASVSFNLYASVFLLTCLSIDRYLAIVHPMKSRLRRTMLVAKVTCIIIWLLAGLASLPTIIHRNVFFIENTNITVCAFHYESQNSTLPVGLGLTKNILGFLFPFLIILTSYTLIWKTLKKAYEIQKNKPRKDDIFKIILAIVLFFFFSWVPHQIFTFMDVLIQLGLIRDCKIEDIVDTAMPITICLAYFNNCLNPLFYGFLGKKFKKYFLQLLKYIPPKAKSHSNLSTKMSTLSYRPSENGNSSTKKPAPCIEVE
How it was run: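 Competition binding of [125I](Sar1,Ile8)AngII (2200 Ci/mmole) to bovine adrenal cortex membranes (100,000×g pellet) in 50.0 mM Tris.HCl, pH 7.2, 0.1 mM PMSF. Compounds were added in DMSO and incubated 60 min at room temperature, in triplicate. Bound ligand was filtered onto PEI-presoaked filters and gamma-counted, with nonlinear analysis.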

In order of rising IC50:
1. CCCCc1nc2ccc(C(O)C3CCN(C)C3=O)cc2c(=O)n1Cc1ccc(-c2ccccc2-c2nn[nH]n2)cc1 (single isomer, unassigned; isomer 2) [Example 33, 2-Butyl-6-[hydroxy(1-methyl-2-oxo-3-pyrrolidinyl)methyl-3-[[2'-(1H-tetrazol-5-yl)[1,1'-biphenyl]-4-yl]methyl]-4(3H)-quinazolinone isomer 2]  0.029 µM
2. CCCCc1nc2ccc(C(OC)C3CCCO3)cc2c(=O)n1Cc1ccc(-c2ccccc2-c2nn[nH]n2)cc1 (single isomer, unassigned) [Example 24]  0.038 µM
3. CCCCc1nc2ccc(C(O)C3CCCN(C)C3=O)cc2c(=O)n1Cc1ccc(-c2ccccc2-c2nn[nH]n2)cc1 (single isomer, unassigned; isomer 1) [Example 37, 2-Butyl-6-hydroxy(1-methyl-2-oxo-3-piperidinyl)methyl]-3-[[2'-(1H-tetrazol-5-yl)[1,1'-biphenyl]-4-yl]methyl]-4(3H)-quinazolinone isomer 1]  0.041 µM
4. CCCCc1nc2ccc(C(O)C3CCN(C)C3=O)cc2c(=O)n1Cc1ccc(-c2ccccc2-c2nn[nH]n2)cc1 (single isomer, unassigned; isomer 1) [Example 32, 2-Butyl-6-[hydroxy(1-methyl-2-oxo-3-pyrrolidinyl)methyl]-3-[[2'-(1e,uns/H/ -tetrazol-5-yl)[1,1'-biphenyl]-4-yl]methyl]-4(3H)-quinazolinone isomer 1]  0.041 µM
5. CCCCc1nc2ccc(C(O)C3CCCN(C)C3=O)cc2c(=O)n1Cc1ccc(-c2ccccc2-c2nn[nH]n2)cc1 (single isomer, unassigned; isomer 2) [Example 38, 2-Butyl-6-hydroxy(1-methyl-2-oxo-3-piperidinyl)methyl-3-[[2'-(1H-tetrazol-5-yl)[1,1'-biphenyl]-4-yl]methyl-4(3H)-quinazolinone isomer 2]  0.067 µM
6. CCCCc1nc2ccc(C(OC)C3CCCO3)cc2c(=O)n1Cc1ccc(-c2ccccc2-c2nn[nH]n2)cc1 (single isomer, unassigned; isomer 1) [Example 23, 2-Butyl-6-[methoxy(tetrahydro-2-furanyl)methyl-3-[[2'-(1H-tetrazol-5-yl)[1,1'-biphenyl]-4-yl]-methyl]-4(3e,uns/H/ )-quinazolinone isomer 1]  0.068 µM
7. CCCCc1nc2ccc(C(OC)C3CCCN(C)C3=O)cc2c(=O)n1Cc1ccc(-c2ccccc2-c2nn[nH]n2)cc1 (single isomer, unassigned; isomer 2) [Example 43, 2-Butyl-6-[methoxy(1-methyl-2-oxo-3-piperidinyl)methyl]-3-[[2'-(1H-tetrazol-5-yl)[1,1'-biphenyl]-4-yl]methyl]-4(3H)-quinazoline isomer 2]  0.071 µM
8. CCCCc1nc2ccc(C(OC)C3CCCN(C)C3=O)cc2c(=O)n1Cc1ccc(-c2ccccc2-c2nn[nH]n2)cc1 (single isomer, unassigned; isomer 1) [Example 42, 2-Butyl-6-methoxy(1-methyl-2-oxo-3-piperidinyl)methyl]-3-[[2' -1H-tetrazol-5-yl)[1,1'-biphenyl]-4-yl]methyl-4(3H)-quinazolinone isomer 1]  0.092 µM
